Source: the supplement of paper PMC11208160

Test: recombinant barcode read abundance after kanamycin selection (control-corrected) (log10(CPM+1)); higher = more efficient recombination; sequences stand for … in AGTGCAGAGAAAATCGGCCAGTTTTCTCTGCCTGCAGTCCGCATGCCGT…AGATTTATGCAGCGGACTGCCTTTCTCCCAAAGTGATAAACCGGACAGTATCATGGACCGGTTTTCCCGGTAATCCGTATTTGCAAGGTTGGTTTCACT; site = the 11-nt target
Protocol: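 Pooled E. coli target-specificity screen for the IS621 bridge recombinase. Each library plasmid pairs an 11-nt target (CT core) with a bridge RNA whose target-binding loop (9-nt LTG + 4-nt RTG) is reprogrammed; the rest of the 177-nt WT IS621 bridge RNA scaffold is fixed. The plasmid is co-electroporated with a WT donor plasmid; recombinase is induced with 0.1 mM IPTG and recombinants are selected on kanamycin. Recombinant barcodes are sequenced, converted to CPM, averaged over two biological replicates and corrected by the unselected control CPM. Molecule = full bridge RNA written as DNA: LTG = specificity nt 1-9, RTG = reverse complement of specificity nt 8-11, in the WT scaffold.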
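Note: IS621 recombinase and bridge RNA in Escherichia coli cells.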

Sequence	recombinant barcode read abundance (log10)
ACCGCTTCTTGGGTTCTAACCTGTTGCCT (site ACCGCTTCTAG)	0.494
ACCGCTTCTTGGGTTCTAACCTGTTGCCT (site AGCGCTTCTAG)	0.0685
ACCGCTTCTTGGGTTCTAACCTGTTGCCT (site ATCGCTTCTAG)	0.329
ACCGTAGCTTGGGTTCTAACCTGTTGCCT (site ACCGTACCTAG)	0.33
ACCGTAGCTTGGGTTCTAACCTGTTGCCT (site ACCGTAGCTAG)	1.07
ACCGTGACTTGGGTTCTAACCTGTTGCCT (site ACCGAGACTAG)	0.0423
ACCGTGACTTGGGTTCTAACCTGTTGCCT (site ACCGCGACTAG)	0.272
ACCGTGACTTGGGTTCTAACCTGTTGCCT (site ACCGGGACTAG)	0.0292
ACCGTGACTTGGGTTCTAACCTGTTGCCT (site ACCGTGACTAG)	1.96
ACCTGACCTTGGGTTCTAACCTGTTGCGG (site ACCTGACCTCC)	1.6
ACCTGACCTTGGGTTCTAACCTGTTGCGG (site CGGACTGCTAG)	0.12
ACCTGCCCTTGGGTTCTAACCTGTTGCCT (site ACCTGACCTAG)	0.154
ACCTGCCCTTGGGTTCTAACCTGTTGCCT (site ACCTGCCCTAG)	1.38
ACCTGCCCTTGGGTTCTAACCTGTTGCCT (site ACCTGGCCTAG)	0.0614
ACCTGCCCTTGGGTTCTAACCTGTTGCCT (site ACCTGTCCTAG)	0.232
ACCTGTACTTGGGTTCTAACCTGTTGCCT (site ACCAGTACTAG)	0.0531
ACCTGTACTTGGGTTCTAACCTGTTGCCT (site ACCCGTACTAG)	0.147
ACCTGTACTTGGGTTCTAACCTGTTGCCT (site ACCGGTACTAG)	0.0956
ACCTGTACTTGGGTTCTAACCTGTTGCCT (site ACCTGTACTAG)	0.183
ACCTTAGCTTGGGTTCTAACCTGTTGCGG (site ACCCTAACTCC)	0.263
ACCTTAGCTTGGGTTCTAACCTGTTGCGG (site ACCTTAGCTCC)	1.79

Sequence	recombinant barcode read abundance (log10)
ACCTTGCCTTGGGTTCTAACCTGTTGCCT (site ACATTGCCTAG)	0.178
ACCTTGCCTTGGGTTCTAACCTGTTGCCT (site ACCTTGCCTAG)	0.012
ACCTTGCCTTGGGTTCTAACCTGTTGCCT (site ACGTTGCCTAG)	0.875
ACCTTGCCTTGGGTTCTAACCTGTTGCCT (site ACTTTGCCTAG)	0.0414
ACGAATCCTTGGGTTCTAACCTGTTGCTT (site ACGAATCCTAA)	0.423
ACGAATCCTTGGGTTCTAACCTGTTGCTT (site ACGACTCCTAA)	0.0122
ACGAATCCTTGGGTTCTAACCTGTTGCTT (site ACGAGTCCTAA)	0.461
ACGAATCCTTGGGTTCTAACCTGTTGCTT (site ACGATTCCTAA)	0.0624
ACGACTCCTTGGGTTCTAACCTGTTGCTG (site ACGACTCCTCA)	0.485
ACGACTCCTTGGGTTCTAACCTGTTGCTG (site ACGCCTCCTCA)	0.0825
ACGACTCCTTGGGTTCTAACCTGTTGCTG (site ACGGCTCCTCA)	0.0665
ACGACTCCTTGGGTTCTAACCTGTTGCTG (site ACGTCTCCTCA)	0.0836
ACGACTCCTTGGGTTCTAACCTGTTGCTT (site ACGAATCCTAA)	0.224
ACGACTCCTTGGGTTCTAACCTGTTGCTT (site ACGACTCCTAA)	0.0167
ACGACTCCTTGGGTTCTAACCTGTTGCTT (site ACGAGTCCTAA)	0.0152
ACGACTCCTTGGGTTCTAACCTGTTGCTT (site ACGATTCCTAA)	0.0399
ACGACTTCTTGGGTTCTAACCTGTTGCCT (site ACGACTACTAG)	0.0265
ACGACTTCTTGGGTTCTAACCTGTTGCCT (site ACGACTCCTAG)	0.167
ACGACTTCTTGGGTTCTAACCTGTTGCCT (site ACGACTGCTAG)	0
ACGACTTCTTGGGTTCTAACCTGTTGCCT (site ACGACTTCTAG)	0.731
ACGAGTCCTTGGGTTCTAACCTGTTGCTT (site ACGAATCCTAA)	0.365

Sequence	recombinant barcode read abundance (log10)
ACGAGTCCTTGGGTTCTAACCTGTTGCTT (site ACGACTCCTAA)	0.161
ACGAGTCCTTGGGTTCTAACCTGTTGCTT (site ACGAGTCCTAA)	0.606
ACGAGTCCTTGGGTTCTAACCTGTTGCTT (site ACGATTCCTAA)	0.0892
ACGCCTCCTTGGGTTCTAACCTGTTGCTG (site ACGACTCCTCA)	0.0447
ACGCCTCCTTGGGTTCTAACCTGTTGCTG (site ACGCCTCCTCA)	0.384
ACGCCTCCTTGGGTTCTAACCTGTTGCTG (site ACGGCTCCTCA)	0.269
ACGCCTCCTTGGGTTCTAACCTGTTGCTG (site ACGTCTCCTCA)	0.175
ACGCGGCCTTGGGTTCTAACCTGTTGCCT (site ACGCGGCCTAG)	0.103
ACGCGGCCTTGGGTTCTAACCTGTTGCCT (site CCGCGGCCTAG)	0.42
ACGCGGCCTTGGGTTCTAACCTGTTGCCT (site GCGCGGCCTAG)	0.147
ACGCGGCCTTGGGTTCTAACCTGTTGCCT (site TCGCGGCCTAG)	0.108
ACGCGTGCTTGGGTTCTAACCTGTTGCGG (site ACGCGTGCTCC)	0.727
ACGCGTGCTTGGGTTCTAACCTGTTGCGG (site CTAGTAACTTG)	0.019
ACGGAATCTTGGGTTCTAACCTGTTGCCG (site ACGGAATCTCG)	0.46
ACGGAATCTTGGGTTCTAACCTGTTGCCG (site TAAATCCCTTC)	0.245
ACGGAGTCTTGGGTTCTAACCTGTTGCTA (site ACGGAGTCTTA)	1.3
ACGGAGTCTTGGGTTCTAACCTGTTGCTA (site TACAGACCTCT)	0.0854
ACGGCTACTTGGGTTCTAACCTGTTGCTT (site ACGGCTACTAA)	0.83
ACGGCTACTTGGGTTCTAACCTGTTGCTT (site GGTTAGTCTCG)	0.0618
ACGGCTTCTTGGGTTCTAACCTGTTGCTA (site ACGGCTTCTTA)	0.494
ACGGCTTCTTGGGTTCTAACCTGTTGCTA (site AGGGCTTCTTA)	0.485

Sequence	recombinant barcode read abundance (log10)
ACGGGTGCTTGGGTTCTAACCTGTTGCCT (site ACGGGTGCTAG)	1.86
ACGGGTGCTTGGGTTCTAACCTGTTGCCT (site ACGGTTGCTAG)	0.103
ACGTCACCTTGGGTTCTAACCTGTTGCCT (site ACGTCACCTAG)	0.536
ACGTCACCTTGGGTTCTAACCTGTTGCCT (site CCGTCACCTAG)	0.0656
ACGTCACCTTGGGTTCTAACCTGTTGCCT (site GCGTCACCTAG)	0.221
ACGTCACCTTGGGTTCTAACCTGTTGCCT (site TCGTCACCTAG)	0.17
ACGTGGACTTGGGTTCTAACCTGTTGCTA (site ACGTGGACTTA)	1.06
ACGTGGACTTGGGTTCTAACCTGTTGCTA (site GACAATGCTAT)	0.181
ACTAAACCTTGGGTTCTAACCTGTTGCCT (site ACTAAACCTAG)	0.866
ACTAAACCTTGGGTTCTAACCTGTTGCCT (site GCTAACCCTAG)	0.246
ACTAATCCTTGGGTTCTAACCTGTTGCTT (site ACTAATCCTAA)	0.236
ACTAATCCTTGGGTTCTAACCTGTTGCTT (site CCTAATACTAA)	0.105
ACTAGGACTTGGGTTCTAACCTGTTGCGA (site ACTAGGACTAC)	0.0787
ACTAGGACTTGGGTTCTAACCTGTTGCGA (site ACTAGGACTCC)	1.43
ACTAGGACTTGGGTTCTAACCTGTTGCGA (site ACTAGGACTGC)	0.0331
ACTAGGACTTGGGTTCTAACCTGTTGCGA (site ACTAGGACTTC)	2.27
ACTAGGTCTTGGGTTCTAACCTGTTGCTA (site ACTAGCTCTTA)	0.0718
ACTAGGTCTTGGGTTCTAACCTGTTGCTA (site ACTAGGTCTTA)	1.04
ACTAGTCCTTGGGTTCTAACCTGTTGCCT (site ACTAGTCCTAA)	0.233
